{"source": "paper PMC4503722", "about": "“Novel Phenotypic Outcomes Identified for a Public Collection of Approved Drugs from a Publicly Accessible Panel of Assays” (PLoS ONE, 2015)"}
{"system": "RKO", "assay": "cells", "format": "cell-based", "conditions": "assay number 29", "units": {"Basal_Viability ATP RKO IC50/EC50": "µM"}}
{"smiles": "CC(C)NCC(O)COc1ccc(CCOCC2CC2)cc1", "note": "(stereo not shown) [NCGC00015159-11]", "Basal_Viability ATP RKO IC50/EC50": "> 20"}
{"system": "RKO", "assay": "cells", "format": "cell-based", "conditions": "assay number 29; basal", "units": {"Basal_Viability ATP RKO IC50/EC50": "µM"}}
{"smiles": "NCCCC[C@H](N[C@@H](CCc1ccccc1)C(=O)O)C(=O)N1CCC[C@H]1C(=O)O", "note": "[NCGC00179623-04]", "Basal_Viability ATP RKO IC50/EC50": 8.8772}
{"smiles": "OC[C@@H](O)[C@H](O)[C@H](O)[C@@H](O)CO", "note": "[NCGC00166072-02]", "Basal_Viability ATP RKO IC50/EC50": "> 20"}
{"smiles": "CN(CCOc1ccc(CC2SC(=O)NC2=O)cc1)c1ccccn1", "note": "(stereo not shown) [NCGC00095124-08]", "Basal_Viability ATP RKO IC50/EC50": "> 20"}
{"smiles": "CCn1cc(C(=O)O)c(=O)c2cnc(N3CCNCC3)nc21", "note": "[NCGC00016866-11]", "Basal_Viability ATP RKO IC50/EC50": "> 20"}
{"system": "Colo320", "assay": "cells", "format": "cell-based", "conditions": "assay number 27", "units": {"Basal_Viability ATP Colo 320 IC50/EC50": "µM"}}
{"smiles": "CC(C)NCC(O)COc1ccc(CCOCC2CC2)cc1", "note": "(stereo not shown) [NCGC00015159-11]", "Basal_Viability ATP Colo 320 IC50/EC50": 6.1657}
{"system": "Colo320", "assay": "cells", "format": "cell-based", "conditions": "assay number 27; basal", "units": {"Basal_Viability ATP Colo 320 IC50/EC50": "µM"}}
{"smiles": "NCCCC[C@H](N[C@@H](CCc1ccccc1)C(=O)O)C(=O)N1CCC[C@H]1C(=O)O", "note": "[NCGC00179623-04]", "Basal_Viability ATP Colo 320 IC50/EC50": "> 20"}
{"smiles": "OC[C@@H](O)[C@H](O)[C@H](O)[C@@H](O)CO", "note": "[NCGC00166072-02]", "Basal_Viability ATP Colo 320 IC50/EC50": "> 20"}
{"smiles": "CN(CCOc1ccc(CC2SC(=O)NC2=O)cc1)c1ccccn1", "note": "(stereo not shown) [NCGC00095124-08]", "Basal_Viability ATP Colo 320 IC50/EC50": "> 20"}
{"smiles": "CCn1cc(C(=O)O)c(=O)c2cnc(N3CCNCC3)nc21", "note": "[NCGC00016866-11]", "Basal_Viability ATP Colo 320 IC50/EC50": "> 20"}
{"system": "HCT116", "assay": "cells", "format": "cell-based", "conditions": "assay number 25; basal", "units": {"Basal_Viability ATP HCT116 IC50/EC50": "µM"}}
{"smiles": "NCCCC[C@H](N[C@@H](CCc1ccccc1)C(=O)O)C(=O)N1CCC[C@H]1C(=O)O", "note": "[NCGC00179623-04]", "Basal_Viability ATP HCT116 IC50/EC50": 3.3925}
{"smiles": "OC[C@@H](O)[C@H](O)[C@H](O)[C@@H](O)CO", "note": "[NCGC00166072-02]", "Basal_Viability ATP HCT116 IC50/EC50": "> 20"}
{"smiles": "CN(CCOc1ccc(CC2SC(=O)NC2=O)cc1)c1ccccn1", "note": "(stereo not shown) [NCGC00095124-08]", "Basal_Viability ATP HCT116 IC50/EC50": "> 20"}
{"smiles": "CCn1cc(C(=O)O)c(=O)c2cnc(N3CCNCC3)nc21", "note": "[NCGC00016866-11]", "Basal_Viability ATP HCT116 IC50/EC50": "> 20"}
{"smiles": "CC(C)NCC(O)COc1ccc(CCOCC2CC2)cc1", "note": "(stereo not shown) [NCGC00015159-11]", "Basal_Viability ATP HCT116 IC50/EC50": "> 20"}
{"system": "HeLa cells", "assay": "cells", "format": "cell-based", "conditions": "assay number 14; 2N", "units": {"Hela CellCycMod PI 2N IC50/EC50": "µM"}}
{"smiles": "NCCCC[C@H](N[C@@H](CCc1ccccc1)C(=O)O)C(=O)N1CCC[C@H]1C(=O)O", "note": "[NCGC00179623-04]", "Hela CellCycMod PI 2N IC50/EC50": "> 10"}
{"system": "HeLa cells", "assay": "cells", "format": "cell-based", "conditions": "assay number 15; S phase", "units": {"Hela CellCycMod PI S Phase IC50/EC50": "µM"}}
{"smiles": "NCCCC[C@H](N[C@@H](CCc1ccccc1)C(=O)O)C(=O)N1CCC[C@H]1C(=O)O", "note": "[NCGC00179623-04]", "Hela CellCycMod PI S Phase IC50/EC50": "> 10"}
{"system": "HeLa cells", "assay": "cells", "format": "cell-based", "conditions": "assay number 16; 4N", "units": {"Hela CellCycMod PI 4N IC50/EC50": "µM"}}
{"smiles": "NCCCC[C@H](N[C@@H](CCc1ccccc1)C(=O)O)C(=O)N1CCC[C@H]1C(=O)O", "note": "[NCGC00179623-04]", "Hela CellCycMod PI 4N IC50/EC50": "> 10"}
{"system": "HeLa cells", "assay": "cells", "format": "cell-based", "conditions": "assay number 17; MI", "units": {"Hela CellCycMod PI MI IC50/EC50": "µM"}}
{"smiles": "NCCCC[C@H](N[C@@H](CCc1ccccc1)C(=O)O)C(=O)N1CCC[C@H]1C(=O)O", "note": "[NCGC00179623-04]", "Hela CellCycMod PI MI IC50/EC50": "> 10"}
{"system": "HeLa cells", "assay": "cells", "format": "cell-based", "conditions": "assay number 18; cell number", "units": {"Hela CellCycMod PI Cell Number IC50/EC50": "µM"}}
{"smiles": "NCCCC[C@H](N[C@@H](CCc1ccccc1)C(=O)O)C(=O)N1CCC[C@H]1C(=O)O", "note": "[NCGC00179623-04]", "Hela CellCycMod PI Cell Number IC50/EC50": "> 10"}
{"system": "HT-29", "assay": "cells", "format": "cell-based", "conditions": "assay number 28", "units": {"Basal_Viability ATP HT-29 IC50/EC50": "µM"}}
{"smiles": "CC(C)NCC(O)COc1ccc(CCOCC2CC2)cc1", "note": "(stereo not shown) [NCGC00015159-11]", "Basal_Viability ATP HT-29 IC50/EC50": "> 20"}
{"system": "HT-29", "assay": "cells", "format": "cell-based", "conditions": "assay number 28; basal", "units": {"Basal_Viability ATP HT-29 IC50/EC50": "µM"}}
{"smiles": "NCCCC[C@H](N[C@@H](CCc1ccccc1)C(=O)O)C(=O)N1CCC[C@H]1C(=O)O", "note": "[NCGC00179623-04]", "Basal_Viability ATP HT-29 IC50/EC50": "> 6.667"}
{"smiles": "OC[C@@H](O)[C@H](O)[C@H](O)[C@@H](O)CO", "note": "[NCGC00166072-02]", "Basal_Viability ATP HT-29 IC50/EC50": "> 20"}
{"smiles": "CN(CCOc1ccc(CC2SC(=O)NC2=O)cc1)c1ccccn1", "note": "(stereo not shown) [NCGC00095124-08]", "Basal_Viability ATP HT-29 IC50/EC50": "> 20"}
{"smiles": "CCn1cc(C(=O)O)c(=O)c2cnc(N3CCNCC3)nc21", "note": "[NCGC00016866-11]", "Basal_Viability ATP HT-29 IC50/EC50": "> 20"}
{"system": "DLD-1", "assay": "cells", "format": "cell-based", "conditions": "assay number 23", "units": {"Basal_Viability ATP DLD-1 IC50/EC50": "µM"}}
{"smiles": "CC(C)NCC(O)COc1ccc(CCOCC2CC2)cc1", "note": "(stereo not shown) [NCGC00015159-11]", "Basal_Viability ATP DLD-1 IC50/EC50": "> 20"}
{"system": "DLD-1", "assay": "cells", "format": "cell-based", "conditions": "assay number 23; basal", "units": {"Basal_Viability ATP DLD-1 IC50/EC50": "µM"}}
{"smiles": "NCCCC[C@H](N[C@@H](CCc1ccccc1)C(=O)O)C(=O)N1CCC[C@H]1C(=O)O", "note": "[NCGC00179623-04]", "Basal_Viability ATP DLD-1 IC50/EC50": 2.2356}
{"smiles": "OC[C@@H](O)[C@H](O)[C@H](O)[C@@H](O)CO", "note": "[NCGC00166072-02]", "Basal_Viability ATP DLD-1 IC50/EC50": "> 20"}
{"smiles": "CN(CCOc1ccc(CC2SC(=O)NC2=O)cc1)c1ccccn1", "note": "(stereo not shown) [NCGC00095124-08]", "Basal_Viability ATP DLD-1 IC50/EC50": "> 20"}
{"smiles": "CCn1cc(C(=O)O)c(=O)c2cnc(N3CCNCC3)nc21", "note": "[NCGC00016866-11]", "Basal_Viability ATP DLD-1 IC50/EC50": "> 20"}
{"system": "SNU-C1", "assay": "cells", "format": "cell-based", "conditions": "assay number 30", "units": {"Basal_Viability ATP SNU-C1 IC50/EC50": "µM"}}
{"smiles": "CC(C)NCC(O)COc1ccc(CCOCC2CC2)cc1", "note": "(stereo not shown) [NCGC00015159-11]", "Basal_Viability ATP SNU-C1 IC50/EC50": "> 20"}
{"system": "SNU-C1", "assay": "cells", "format": "cell-based", "conditions": "assay number 30; basal", "units": {"Basal_Viability ATP SNU-C1 IC50/EC50": "µM"}}
{"smiles": "NCCCC[C@H](N[C@@H](CCc1ccccc1)C(=O)O)C(=O)N1CCC[C@H]1C(=O)O", "note": "[NCGC00179623-04]", "Basal_Viability ATP SNU-C1 IC50/EC50": 2.5347}
{"smiles": "OC[C@@H](O)[C@H](O)[C@H](O)[C@@H](O)CO", "note": "[NCGC00166072-02]", "Basal_Viability ATP SNU-C1 IC50/EC50": "> 20"}
{"smiles": "CN(CCOc1ccc(CC2SC(=O)NC2=O)cc1)c1ccccn1", "note": "(stereo not shown) [NCGC00095124-08]", "Basal_Viability ATP SNU-C1 IC50/EC50": 8.6851}
{"smiles": "CCn1cc(C(=O)O)c(=O)c2cnc(N3CCNCC3)nc21", "note": "[NCGC00016866-11]", "Basal_Viability ATP SNU-C1 IC50/EC50": "> 20"}
{"system": "SW480", "assay": "cells", "format": "cell-based", "conditions": "assay number 24", "units": {"Basal_Viability ATP SW480 IC50/EC50": "µM"}}
{"smiles": "CC(C)NCC(O)COc1ccc(CCOCC2CC2)cc1", "note": "(stereo not shown) [NCGC00015159-11]", "Basal_Viability ATP SW480 IC50/EC50": "> 20"}
{"system": "SW480", "assay": "cells", "format": "cell-based", "conditions": "assay number 24; basal", "units": {"Basal_Viability ATP SW480 IC50/EC50": "µM"}}
{"smiles": "NCCCC[C@H](N[C@@H](CCc1ccccc1)C(=O)O)C(=O)N1CCC[C@H]1C(=O)O", "note": "[NCGC00179623-04]", "Basal_Viability ATP SW480 IC50/EC50": 4.028}
{"smiles": "OC[C@@H](O)[C@H](O)[C@H](O)[C@@H](O)CO", "note": "[NCGC00166072-02]", "Basal_Viability ATP SW480 IC50/EC50": "> 20"}
{"smiles": "CN(CCOc1ccc(CC2SC(=O)NC2=O)cc1)c1ccccn1", "note": "(stereo not shown) [NCGC00095124-08]", "Basal_Viability ATP SW480 IC50/EC50": "> 20"}
{"smiles": "CCn1cc(C(=O)O)c(=O)c2cnc(N3CCNCC3)nc21", "note": "[NCGC00016866-11]", "Basal_Viability ATP SW480 IC50/EC50": "> 20"}
